Data taken from patent publication US7718645B2, “Substituted bicyclolactam compounds” (Pfizer Inc., priority 2007, dated 2010).
Read-outs that look alike come from different tables or passages of the source.

Target: T1, Human full-length diacylglycerol:acylCoA acyltransferase 1 (DGAT-1) (Homo sapiens, UniProt O75907)
T1 construct: Human full-length diacylglycerol:acylCoA acyltransferase 1 (DGAT-1) was expressed in Sf9 insect cells; made in house; host or cells: Sf9 insect cells (baculovirus)
T1 sequence (O75907 1-488): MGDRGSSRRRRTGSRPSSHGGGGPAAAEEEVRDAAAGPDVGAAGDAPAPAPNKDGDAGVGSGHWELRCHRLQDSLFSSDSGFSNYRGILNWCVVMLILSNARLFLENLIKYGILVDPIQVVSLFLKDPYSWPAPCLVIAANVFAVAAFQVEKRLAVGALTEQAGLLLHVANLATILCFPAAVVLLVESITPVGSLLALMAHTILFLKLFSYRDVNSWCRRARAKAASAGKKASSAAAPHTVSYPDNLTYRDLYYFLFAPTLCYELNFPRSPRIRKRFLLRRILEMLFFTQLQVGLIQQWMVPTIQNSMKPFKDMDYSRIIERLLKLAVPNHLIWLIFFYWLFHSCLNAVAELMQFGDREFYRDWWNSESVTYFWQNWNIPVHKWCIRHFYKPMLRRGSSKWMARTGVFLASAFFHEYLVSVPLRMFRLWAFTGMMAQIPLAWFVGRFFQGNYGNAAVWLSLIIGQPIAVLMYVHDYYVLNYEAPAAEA
Experiment: In vitro assay for DGAT-1 inhibition ([14C]decanoylCoA, Sf9 membrane fraction)
Format: biochemical
Experimental: Human full-length diacylglycerol:acylCoA acyltransferase 1 (DGAT-1) was expressed in Sf9 insect cells which are then lysed and a crude membrane fraction (105,000×g pellet) was prepared.
The cells were cultured as follows. Sf9 cells (20 L) were infected with 4 mL of DGAT1 Baculovirus Infected Insect Cells (BIIC) for 72 hours in a Wave Bioreactor System 20/50P (Wave Biotec/GE Healthcare).
Crude DGAT-1 microsomes were prepared as follows. Cell pellets were washed once with ice-cold Dulbecco's phosphate-buffered saline. Cells were collected in tabletop centrifuge (Beckman GS-6KR), 15 minutes, 2000×g, 4° C. Twenty (20) mL of ice-cold Microsome Buffer (MB) was added per 5 g of cell pellet. The suspension was passed through a microfluidizer 3 times (18K psi). The lysate was transferred to centrifuge tubes and centrifuged for 20 minutes at 5000×g (Beckman-Coulter, Inc. Allegra® 64R High-Speed Refrigerated Benchtop Centrifuge, F0650 rotor) at 4° C. The supernatant was transferred to Ultracentrifuge tubes and centrifuged at […] for 1 hr in a Beckman Ti-45 rotor, 4° C. The supernatant fluid was discarded. The pellet was resuspended in 70 mL of MB by sonication. The microsome concentration was determined using Bio-Rad Protein DC Protein Assay. The microsomes were filter sterilized with a 0.22 μm filter. The samples were portioned, flash frozen and stored at −80° C.
Inhibitors in DMSO were pre-incubated with membranes before initiating the DGAT-1 reaction by the addition of decanoylCoA. […] The inhibitors were present at a range of eight concentrations to generate an apparent IC50 for each compound. […] Specifically, the eight concentrations used were 10 μM, 3 μM, 1 μM, 300 nM, 100 nM, 30 nM, 10 nM and 3 nM.
The reactions were allowed to proceed for 1.5 h at room temperature and then terminated by the addition of 10 μl of HCl (0.5 M). Reaction mixtures were neutralized by the addition of 15 μl of tris(hydroxy-methyl)aminomethane (1M, pH 8.0) and then mixed by trituration with 37.5 μl of Microscint™-E (Perkin Elmer).
Where this DGAT-1 inhibition assay was performed on a compound more than once, an inhibition range is also provided for that compound.

[1] = apparent IC50, eight inhibitor concentrations 10 μM to 3 nM, read-out: IC50
[2] = inhibition range where the assay was performed on a compound more than once, read-out: IC50 range
[3] = Examples 17-23 table, range of repeated assays, read-out: DGAT-1 IC50 Range
[4] = Examples 17-23 table, read-out: DGAT-1 IC50
[5] = Examples 24-25 table, range of repeated assays, read-out: DGAT-1 IC50 Range
[6] = Examples 24-25 table, read-out: DGAT-1 IC50

| SMILES | IC50 [1] [nM] | IC50 [2] [nM] | IC50 [3] [nM] | IC50 [4] [nM] | other results |
| --- | --- | --- | --- | --- | --- |
| COC(=O)CC1CC=C(c2ccc(N3CCOc4ncnc(N)c4C3=O)cc2)CC1 (racemic) [Example 52, Methyl(+)-{4-[4-(4-Amino-5-oxo-7,8-dihydropyrimido[5,4-f][1,4]oxazepin-6(5H)-yl)phenyl]cyclohex-3-en-1-yl}acetate] | 84.3 | – | – | – | – |
| Nc1ncnc2c1C(=O)N(c1ccc([C@@H]3CC[C@@H]4[C@@H](CC(=O)O)CC[C@@H]43)cc1)CCO2 (racemic) [Example 55, ±{(1R,3aS,4R,6aR)4-[4-(4-Amino-5-oxo-7,8-dihydropyrimido[5,4-f][1,4]oxazepin-6(5H)-yl)phenyl]octahydropentalen-1-yl}acetic Acid] | < 10 | 3 to 27.2 | – | – | – |
| Nc1ncnc2c1C(=O)N(c1ccc([C@H]3C[C@H]4C[C@@H]3C3C(C(=O)O)C34)cc1)CCO2 (mixture of isomers) [Example 57, (±)-(1R,5R,6S)-6-[4-(4-Amino-5-oxo-7,8-dihydropyrimido[5,4-f][1,4]oxazepin-6(5H)-yl)phenyl]tricyclo[3.2.1.0˜2.4˜]octane-3-carboxylic Acid] | 34.7 | 26.7 to 58.6 | – | – | – |
| Nc1ncnc2c1C(=O)N(c1ccc(C3=CCC(CC(=O)O)CC3)cc1)CCO2 (single isomer, unassigned; (+)) [Example 53, (+)-{4-[4-(4-Amino-5-oxo-7,8-dihydropyrimido[5,4-f][1,4]oxazepin-6(5H)-yl)phenyl]cyclohex-3-en-1-yl}acetic Acid] | 36.4 | 33.8 to 39.3 | – | – | – |
| C[C@H]1COc2ncnc(N)c2C(=O)N1c1ccc([C@H]2CC[C@H](CC(=O)O)CC2)cc1 [Example 5] | 33.9 | – | – | – | – |
| Nc1ncnc2c1C(=O)N(c1ccc(C3CCC(CC(=O)O)CC3)cc1F)CCO2 (stereo not drawn) [Example 6, 2-(4-(4-(4-amino-5-oxo-7,8-dihydropyrimido[5,4-f][1,4]oxazepin-6(5H)-yl)-3-fluorophenyl)cyclohexyl)acetic Acid] | 55.5 | 29.1 to 89.6 | – | – | – |
| CCOC(=O)C[C@H]1CC[C@H](c2ccc(N3CC(C)(C)Oc4ncnc(N)c4C3=O)cc2)CC1 [Example 7, ethyl {trans-4-[4-(4-amino-8,8-dimethyl-5-oxo-7,8-dihydropyrimido[5,4-f][1,4]oxazepin-6(5H)-yl)phenyl]cyclohexyl}acetate] | 183 | – | – | – | – |
| COC(=O)C[C@H]1CC[C@H](c2ccc(N3CCOc4nc(C)nc(N)c4C3=O)cc2)CC1 [Example 9, methyl {trans-4-[4-(4-amino-2-methyl-5-oxo-7,8-dihydropyrimido[5,4-f][1,4]oxazepin-6(5H)-yl)phenyl]cyclohexyl}acetate] | 239 | – | – | – | – |
| CCC1CN(c2ccc(C3CCC(CC(=O)O)CC3)cc2)C(=O)c2c(N)ncnc2O1 (stereo not drawn) [Example 13, {4-[4-(4-Amino-8-ethyl-5-oxo-7,8-dihydro-5H-9-oxa-1,3,6-triaza-benzocyclohepten-6-yl)-phenyl]-cyclohexyl}-acetic acid] | 1330 | 1070 to 1660 | – | – | – |
| CC1COc2ncnc(N)c2C(=O)N1c1ccc(C2CCC(CC(=O)O)CC2)cc1 (stereo not drawn) [Example 15, {4-[4-(4-Amino-7-methyl-5-oxo-7,8-dihydro-5H-9-oxa-1,3,6-triaza-benzocyclohepten-6-yl)-phenyl]-cyclohexyl}-acetic acid] | 27.3 | 13.6 to 77.9 | – | – | – |
| C[C@@H]1CN(c2ccc(C3CCC(CC(=O)O)CC3)c(F)c2)C(=O)c2c(N)ncnc2O1 (stereo partly drawn) [Example 17, (R)-2-(4-(4-(4-amino-8-methyl-5-oxo-7,8-dihydropyrimido[5,4-f][1,4]oxazepin-6(5H)-yl)-2-fluorophenyl)cyclohexyl)acetic acid] | – | – | 3 to 15.5 | < 6.21 | – |
| Nc1ncnc2c1C(=O)N(c1ccc(C3CCC(CC(=O)O)CC3)c(Cl)c1)CCO2 (stereo not drawn) [Example 18, 2-(4-(4-(4-amino-5-oxo-7,8-dihydropyrimido[5,4-f][1,4]oxazepin-6(5H)-yl)-2-chlorophenyl)cyclohexyl)acetic acid] | – | – | 4.4 to 6.9 | 5.82 | – |
| Nc1ncnc2c1C(=O)N(c1ccc(C3CCC(CC(=O)O)CC3)c(F)c1)CCO2 (stereo not drawn) [Example 19, 2-(4-(4-(4-amino-5-oxo-7,8-dihydropyrimido[5,4-f][1,4]oxazepin-6(5H)-yl)-2-fluorophenyl)cyclohexyl)acetic acid] | – | – | 3 to 15.5 | < 8.26 | – |
| Cc1cc(N2CCOc3ncnc(N)c3C2=O)ccc1C1CCC(CC(=O)O)CC1 (stereo not drawn) [Example 20, 2-(4-(4-(4-amino-5-oxo-7,8-dihydropyrimido[5,4-f][1,4]oxazepin-6(5H)-yl)-2-methylphenyl)cyclohexyl)acetic acid] | – | – | 8.6 to 17.2 | 13 | – |
| Cc1cc(N2C[C@@H](C)Oc3ncnc(N)c3C2=O)ccc1C1CCC(CC(=O)O)CC1 (stereo partly drawn) [Example 21, (R)-2-(4-(4-(4-amino-8-methyl-5-oxo-7,8-dihydropyrimido[5,4-f][1,4]oxazepin-6(5H)-yl)-2-methylphenyl)cyclohexyl)acetic acid] | – | – | 6.1 to 37.4 | 14.8 | – |
| C[C@@H]1CN(c2ccc(C3CCC(CC(=O)O)CC3)cc2F)C(=O)c2c(N)ncnc2O1 (stereo partly drawn) [Example 22, (R)-2-(4-(4-(4-amino-8-methyl-5-oxo-7,8-dihydropyrimido[5,4-f][1,4]oxazepin-6(5H)-yl)-3-fluorophenyl)cyclohexyl)acetic acid] | – | – | 27.9 to 34.5 | 30 | – |
| Cc1cc(C2CCC(CC(=O)O)CC2)ccc1N1CCOc2ncnc(N)c2C1=O (stereo not drawn) [Example 23, 2-(4-(4-(4-amino-5-oxo-7,8-dihydropyrimido[5,4-f][1,4]-oxazepin-6(5H)-yl)-3-methylphenyl)cyclohexyl)acetic acid] | – | – | 643 to 2270 | 1410 | – |
| C[C@@H]1CN(c2ccc([C@H]3CC[C@@H](CC(=O)O)CC3)c(F)c2)C(=O)c2c(N)ncnc2O1 [Example 24, (cis-4-{4-[(8R)-4-amino-8-methyl-5-oxo-7,8-dihydropyrimido[5,4-f][1,4]oxazepin-6(5H)-yl]-2-fluorophenyl}cyclohexyl)acetic acid] | – | – | – | – | IC50 [5]: 1.7 to 13.2 nM; IC50 [6]: 4.6 nM |
| C[C@@H]1CN(c2ccc([C@H]3CC[C@H](CC(=O)O)CC3)c(F)c2)C(=O)c2c(N)ncnc2O1 [Example 25, (trans-4-{4-[(8R)-4-amino-8-methyl-5-oxo-7,8-dihydropyrimido[5,4-f][1,4]oxazepin-6(5H)-yl]-2-fluorophenyl}cyclohexyl)acetic acid] | – | – | – | – | IC50 [5]: 10 to 17 nM; IC50 [6]: 12.3 nM |
| CS(=O)(=O)NC(=O)C[C@H]1CC[C@H](c2ccc(N3CCOc4ncnc(N)c4C3=O)cc2)CC1 [Example 26, 2-{Trans-4-[4-(4-amino-5-oxo-7,8-dihydropyrimido[5,4-f][1,4]oxazepin-6(5H)-yl)phenyl]cyclohexyl}-N-(methylsulfonyl)acetamide] | 44.5 | 34.2 to 75 | – | – | – |
| C[C@@H]1CN(c2ccc([C@H]3CC[C@H](CC(N)=O)CC3)cc2)C(=O)c2c(N)ncnc2O1 [Example 27, (Trans-4-{4-[(8R)-4-amino-8-methyl-5-oxo-7,8-dihydropyrimido[5,4-f][1,4]oxazepin-6(5H)-yl]phenyl}cyclohexyl)acetamide] | 52.2 | 11.4 to 68.1 | – | – | – |
| C[C@@H]1CN(c2ccc(C3CCC(CC(N)=O)CC3)c(F)c2)C(=O)c2c(N)ncnc2O1 (stereo partly drawn) [Example 28, (R)-2-(4-(4-(4-amino-8-methyl-5-oxo-7,8-dihydropyrimido[5,4-f][1,4]oxazepin-6(5H)-yl)-2-fluorophenyl)cyclohexyl)acetamide] | 11.3 | 7.3 to 19.9 | – | – | – |
| C[C@@H]1CN(c2ccc([C@H]3CC[C@H](CC#N)CC3)cc2)C(=O)c2c(N)ncnc2O1 [Example 47, (Trans-4-{4-[(8R)-4-amino-8-methyl-5-oxo-7,8-dihydropyrimido[5,4-f][1,4]oxazepin-6(5H)-yl]phenyl}cyclohexyl)acetonitrile] | 38.4 | 30.1 to 48.1 | – | – | – |
